Values of other authors, collected in US6472583B1, “Plasmid-based mutation detection system in transgenic fish” (The University of Georgia Research Foundation, Inc., priority 1998, dated 2002).
Where two headings read alike, the source gives them in different places.

How the values were obtained:
[1] = species not stated
λLIZ transgenic fish = conditions: previous studies using λLIZ transgenic fish

In the case of `CCN(N=O)C(N)=O` [ENU, N-ethyl-N-nitrosourea], the LD50 [1] is given as ~350 mg/kg, the mutation frequency induction (λLIZ transgenic fish; dose about 0.5 mM (60 ppm)) is given as “two-fold” and the mutation frequency induction (λLIZ transgenic fish; dose about 120 ppm, medaka) is given as “four-fold”.
